Assay results as given in US7351709B2, “Estrogen receptor ligands” (Wyeth, priority 2004, dated 2008).
Read-outs that look alike come from different tables or passages of the source.

Columns and labels:
[1] = target: T1, ERα (Homo sapiens, UniProt P03372); test: Creatine kinase (CK) assay in ERα infected HAECT-1 cells; assay type: cell-based; conditions: for ER/CK % E2: efficacy relative to the maximal stimulation observed with E2
T1 construct: expressed in transfected cells; host or cells: HAECT-1 cells infected with Ad5-wt-ER adenovirus
T1 sequence (P03372 1-595): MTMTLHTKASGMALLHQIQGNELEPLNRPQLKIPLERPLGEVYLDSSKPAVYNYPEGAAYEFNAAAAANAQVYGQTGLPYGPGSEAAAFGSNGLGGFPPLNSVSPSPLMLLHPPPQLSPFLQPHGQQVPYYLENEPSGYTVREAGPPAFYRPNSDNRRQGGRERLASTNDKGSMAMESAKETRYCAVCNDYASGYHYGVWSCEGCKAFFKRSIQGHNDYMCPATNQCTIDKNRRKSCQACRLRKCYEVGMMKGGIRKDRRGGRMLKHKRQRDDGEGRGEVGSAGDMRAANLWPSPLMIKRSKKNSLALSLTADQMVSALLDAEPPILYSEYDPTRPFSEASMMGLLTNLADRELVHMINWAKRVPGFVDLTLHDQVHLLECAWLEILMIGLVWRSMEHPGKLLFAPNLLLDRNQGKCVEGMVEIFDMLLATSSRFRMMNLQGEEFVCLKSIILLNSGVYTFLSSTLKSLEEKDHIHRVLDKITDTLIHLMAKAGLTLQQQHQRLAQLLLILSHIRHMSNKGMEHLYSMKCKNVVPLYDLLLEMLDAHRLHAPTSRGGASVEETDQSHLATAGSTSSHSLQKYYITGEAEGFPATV
Protocol: (§1) ERα infected HAECT-1 cells or control cells were thawed, diluted 42× in warm EBM-BSA, plated into 96-well plates at 0.1 ml/well and incubated for 4 h at 34° C. Test compounds were added to the cells as 2× stocks in EBM-BSA containing 2 ng/ml IL-1β (R&D Systems) and plates were returned to the incubator (34° C.). After 15-20 h, 100 μl aliquots of media were removed from the cells and assayed for IL-6 content using a BioSource human IL-6 ELISA Kit. Cells were subsequently washed with 300 μl of Dulbecco's phosphate buffered saline and lysed in 50 μl of Cell Culture Lysis Reagent (Promega). Creatine kinase was determined from the rate of increase in A340 following addition of 100 μl of CK assay reagent (Sigma, cat. No 47-10) to the remainder of the cell lysate.
(§2) For IC50 and EC50 calculations, mean IL-6 or CK values versus log10 of the compound concentration were fitted to a four parameter logistic equation. The IC50/EC50 value, ‘Hill slope’, upper and lower limits of the curve were iteratively estimated.

[2] = target: T1, ERα; test: IL-6 assay: inhibition of IL-1β induced IL-6 expression in ERα infected HAECT-1 cells; assay type: cell-based; conditions: for IC50: Ad5-wt-ER infected HAECT-1 cells, IL-1β stimulated, IL-6 by ELISA; for ER/IL-6 % E2: efficacy relative to the maximal inhibition observed with E2
Protocol: as §1, §2

[3] = Ad5-wt-ER infected HAECT-1 cells, creatine kinase in cell lysate

| EC50 [1, 3] [µM] | ER/CK % E2 [1] [% E2] | IC50 [2] [µM] | ER/IL-6 % E2 [2] [% E2] | EC50 ([1]; cells of the EC50 column printed in uM, read-out: ER/CK EC50) [µM] | ER/CK EC50 (nM) [1, 3] | Compound |
| --- | --- | --- | --- | --- | --- | --- |
| 0.103 | 29 | 0.072 | 104 |  |  | CC[C@@H]1C(=O)N(CC)c2cc(F)ccc2N1C(=O)c1ccc(O)cc1 [Example 3, (3R)-1,3-Diethyl-7-fluoro-4-(4-hydroxybenzoyl)-3,4-dihydroquinoxalin-2(1H)-one] |
|  | 35 | 0.681 | 108 | > 3 |  | CC[C@H]1C(=O)N(C)c2ccc(F)cc2N1S(=O)(=O)c1ccc(O)cc1 [Example 25, (3S)-3-Ethyl-6-fluoro-4-[(4-hydroxyphenyl)sulfonyl]-1-methyl-3,4-dihydroquinoxalin-2(1H)-one] |
|  |  | 0.339 | 81 |  | inactive | CC[C@H]1C(=O)N(CC)c2ccc(F)cc2N1S(=O)(=O)c1ccc(O)cc1 [Example 26, (3S)-1,3-Diethyl-6-fluoro-4-[(4-hydroxyphenyl)sulfonyl]-3,4-dihydroquinoxalin-2(1H)-one] |
| 0.043 | 9 | 0.738 | 63 |  |  | CC[C@H]1C(=O)N(CC)c2cc(F)ccc2N1S(=O)(=O)c1ccc(O)cc1 [Example 30, (3S)-1,3-Diethyl-7-fluoro-4-[(4-hydroxyphenyl)sulfonyl]-3,4-dihydroquinoxalin-2(1H)-one] |
| 0.255 | 17 | 0.542 | 65 |  |  | CC[C@@H]1C(=O)N(Cc2ccccc2)c2cc(F)ccc2N1C(=O)c1cccc(O)c1 [Example 5, (3R)-1-Benzyl-3-ethyl-7-fluoro-4-(3-hydroxybenzoyl)-3,4-dihydroquinoxalin-2(1H)-one] |
| 0.089 | 16 | 0.074 | 99 |  |  | CC[C@@H]1C(=O)N(C)c2cc(F)ccc2N1C(=O)c1ccc(O)cc1 [Example 1, (3R)-3-Ethyl-7-fluoro-4-(4-hydroxybenzoyl)-1-methyl-3,4-dihydroquinoxalin-2(1H)-one] |
| 0.05 | 44 | 0.0054 | 92 |  |  | CC[C@@H]1C(=O)N(C)c2ccc(F)cc2N1C(=O)c1ccc(O)cc1O [Example 19, (3R)-4-(2,4-Dihydroxybenzoyl)-3-ethyl-6-fluoro-1-methyl-3,4-dihydroquinoxalin-2(1H)-one] |
